In publication PMC8119466, “A screen of FDA-approved drugs identifies inhibitors of protein tyrosine phosphatase 4A3 (PTP4A3 or PRL-3)” (Scientific Reports, 2021):
Counter-ions that a name gives are not always drawn.

Experiments:
Type in all cases: biochemical
Settings in all cases: FDA-approved drug screen; compared to DMSO
recombinant PRL-1 = molecular target: T1, recombinant PRL-1 (Homo sapiens, UniProt Q93096); assay: In vitro phosphatase assay (DiFMUP hydrolysis), PRL-1; further: test concentration or dose not given here
T1 construct: 6xHis (N, cleaved yes); made in house; host or cells: E. coli One Shot BL21 Star
T1 sequence (Q93096 1-173): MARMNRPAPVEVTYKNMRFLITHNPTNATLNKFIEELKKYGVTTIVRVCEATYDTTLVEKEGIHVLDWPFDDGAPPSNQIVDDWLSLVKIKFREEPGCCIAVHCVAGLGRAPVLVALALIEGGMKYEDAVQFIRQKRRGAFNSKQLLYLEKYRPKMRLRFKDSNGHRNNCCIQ

recombinant PRL-2 = molecular target: T2, recombinant PRL-2 (Homo sapiens, UniProt Q12974); assay: In vitro phosphatase assay (DiFMUP hydrolysis), PRL-2;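 further: PRL-2 activity read as DiFMUP hydrolysis after 20 min at room temperature with drug, enzyme first pre-reduced at 4 °C for 20 min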
T2 construct: 6xHis (N, cleaved yes); made in house; host or cells: E. coli One Shot BL21 Star
T2 sequence (Q12974 1-167): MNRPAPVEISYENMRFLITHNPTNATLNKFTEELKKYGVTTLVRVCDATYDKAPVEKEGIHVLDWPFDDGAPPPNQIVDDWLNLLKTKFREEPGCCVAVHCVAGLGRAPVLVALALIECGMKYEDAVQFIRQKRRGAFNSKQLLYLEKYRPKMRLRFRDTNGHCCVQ

recombinant PRL-3 = molecular target: T3, recombinant PRL-3 (Homo sapiens, UniProt O75365); assay: In vitro phosphatase assay (DiFMUP hydrolysis), PRL-3; further: test concentration or dose not given here
T3 construct: 6xHis (N, cleaved yes); made in house; host or cells: E. coli One Shot BL21 Star
T3 sequence (O75365 whole entry): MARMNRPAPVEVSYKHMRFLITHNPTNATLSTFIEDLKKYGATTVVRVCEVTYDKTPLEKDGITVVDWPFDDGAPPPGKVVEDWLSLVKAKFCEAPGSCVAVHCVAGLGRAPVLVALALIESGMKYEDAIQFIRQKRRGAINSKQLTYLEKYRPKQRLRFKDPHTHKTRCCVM

CO[C@H]1C(=O)[C@]2(C)[C@@H](OC)C[C@H]3OC[C@@]3(OC(C)=O)[C@H]2[C@H](OC(=O)c2ccccc2)[C@]2(O)C[C@H](OC(=O)[C@H](O)[C@@H](NC(=O)OC(C)(C)C)c3ccccc3)C(C)=C1C2(C)C [Cabazitaxel] was tested, and the “% Phosphatase Activity (compared to DMSO) PRL-1” value (recombinant PRL-1) was 88%, the “% Phosphatase Activity (compared to DMSO) PRL-2” value (recombinant PRL-2) was 107% and the “% Phosphatase Activity (compared to DMSO) PRL-3” value (recombinant PRL-3) was 89%.
With O=C([O-])C(O)[C@H](O)[C@@H](O)[C@H](O)[C@H](O)CO.O=C([O-])C(O)[C@H](O)[C@@H](O)[C@H](O)[C@H](O)CO.[Ca+2] (stereo partly drawn) [Calcium Gluceptate] the “% Phosphatase Activity (compared to DMSO) PRL-1” value (recombinant PRL-1) was 114%, the “% Phosphatase Activity (compared to DMSO) PRL-2” value (recombinant PRL-2) was 104% and the “% Phosphatase Activity (compared to DMSO) PRL-3” value (recombinant PRL-3) was 107%.
For Nc1nc(=O)c2c([nH]1)NC[C@H](CNc1ccc(C(=O)N[C@@H](CCC(=O)[O-])C(=O)[O-])cc1)N2C=O.[Ca+2] [Calcium Levofolinate], the “% Phosphatase Activity (compared to DMSO) PRL-1” value (recombinant PRL-1) was 96%, the “% Phosphatase Activity (compared to DMSO) PRL-2” value (recombinant PRL-2) was 101% and the “% Phosphatase Activity (compared to DMSO) PRL-3” value (recombinant PRL-3) was 105%.
CN(C)C(=O)COC(=O)Cc1ccc(OC(=O)c2ccc(NC(=N)N)cc2)cc1 [Camostat Mesilate] was tested, and the “% Phosphatase Activity (compared to DMSO) PRL-1” value (recombinant PRL-1) was 98%, the “% Phosphatase Activity (compared to DMSO) PRL-2” value (recombinant PRL-2) was 138% and the “% Phosphatase Activity (compared to DMSO) PRL-3” value (recombinant PRL-3) was 94%.
With CCCCCOC(=O)Nc1nc(=O)n([C@@H]2O[C@H](C)[C@@H](O)[C@H]2O)cc1F [Capecitabine] the “% Phosphatase Activity (compared to DMSO) PRL-1” value (recombinant PRL-1) was 108%, the “% Phosphatase Activity (compared to DMSO) PRL-2” value (recombinant PRL-2) was 123% and the “% Phosphatase Activity (compared to DMSO) PRL-3” value (recombinant PRL-3) was 97%.
For C[C@H](CS)C(=O)N1CCC[C@H]1C(=O)O [Captopril], the “% Phosphatase Activity (compared to DMSO) PRL-1” value (recombinant PRL-1) was 90%, the “% Phosphatase Activity (compared to DMSO) PRL-2” value (recombinant PRL-2) was 99% and the “% Phosphatase Activity (compared to DMSO) PRL-3” value (recombinant PRL-3) was 82%.
C[N+](C)(C)CCOC(N)=O [Carbachol] was tested, and the “% Phosphatase Activity (compared to DMSO) PRL-1” value (recombinant PRL-1) was 91%, the “% Phosphatase Activity (compared to DMSO) PRL-2” value (recombinant PRL-2) was 100% and the “% Phosphatase Activity (compared to DMSO) PRL-3” value (recombinant PRL-3) was 82%.
With COC(=O)N/N=C/c1c[n+]([O-])c2ccccc2[n+]1[O-] [Carbadox] the “% Phosphatase Activity (compared to DMSO) PRL-1” value (recombinant PRL-1) was 96%, the “% Phosphatase Activity (compared to DMSO) PRL-2” value (recombinant PRL-2) was 103% and the “% Phosphatase Activity (compared to DMSO) PRL-3” value (recombinant PRL-3) was 99%.
NC(=O)N1c2ccccc2C=Cc2ccccc21 [Carbamazepine] was tested, and the “% Phosphatase Activity (compared to DMSO) PRL-1” value (recombinant PRL-1) was 98%, the “% Phosphatase Activity (compared to DMSO) PRL-2” value (recombinant PRL-2) was 112% and the “% Phosphatase Activity (compared to DMSO) PRL-3” value (recombinant PRL-3) was 80%.
With CC1(C)[C@@H](OC(=O)CCC(=O)O)CC[C@]2(C)[C@H]3C(=O)C=C4[C@@H]5C[C@@](C)(C(=O)O)CC[C@]5(C)CC[C@@]4(C)[C@]3(C)CC[C@@H]12 [Carbenoxolone Sodium] the “% Phosphatase Activity (compared to DMSO) PRL-1” value (recombinant PRL-1) was 85%, the “% Phosphatase Activity (compared to DMSO) PRL-2” value (recombinant PRL-2) was 73% and the “% Phosphatase Activity (compared to DMSO) PRL-3” value (recombinant PRL-3) was 84%.
In the case of C[C@@](Cc1ccc(O)c(O)c1)(NN)C(=O)O [Carbidopa], the “% Phosphatase Activity (compared to DMSO) PRL-1” value (recombinant PRL-1) is reported as 68%, the “% Phosphatase Activity (compared to DMSO) PRL-2” value (recombinant PRL-2) is reported as 92% and the “% Phosphatase Activity (compared to DMSO) PRL-3” value (recombinant PRL-3) is reported as 94%.
In the case of CCOC(=O)n1ccn(C)c1=S [Carbimazole], the “% Phosphatase Activity (compared to DMSO) PRL-1” value (recombinant PRL-1) is reported as 103%, the “% Phosphatase Activity (compared to DMSO) PRL-2” value (recombinant PRL-2) is reported as 114% and the “% Phosphatase Activity (compared to DMSO) PRL-3” value (recombinant PRL-3) is reported as 78%.
In the case of N.N.O=C([O-])C1(C(=O)[O-])CCC1.[Pt+2] [Carboplatin], the “% Phosphatase Activity (compared to DMSO) PRL-1” value (recombinant PRL-1) is reported as 90%, the “% Phosphatase Activity (compared to DMSO) PRL-2” value (recombinant PRL-2) is reported as 79% and the “% Phosphatase Activity (compared to DMSO) PRL-3” value (recombinant PRL-3) is reported as 85%.
For CC(C)C[C@H](NC(=O)[C@H](CCc1ccccc1)NC(=O)CN1CCOCC1)C(=O)N[C@@H](Cc1ccccc1)C(=O)N[C@@H](CC(C)C)C(=O)[C@@]1(C)CO1 [Carfilzomib (PR-171)], the “% Phosphatase Activity (compared to DMSO) PRL-1” value (recombinant PRL-1) was 97%, the “% Phosphatase Activity (compared to DMSO) PRL-2” value (recombinant PRL-2) was 88% and the “% Phosphatase Activity (compared to DMSO) PRL-3” value (recombinant PRL-3) was 94%.
For CCCCCCNC(=O)n1cc(F)c(=O)[nH]c1=O [Carmofur], the “% Phosphatase Activity (compared to DMSO) PRL-1” value (recombinant PRL-1) was 89%, the “% Phosphatase Activity (compared to DMSO) PRL-2” value (recombinant PRL-2) was 95% and the “% Phosphatase Activity (compared to DMSO) PRL-3” value (recombinant PRL-3) was 73%.
CC(C(=O)O)c1ccc2c(c1)[nH]c1ccc(Cl)cc12 (stereo not drawn) [Carprofen] was tested, and the “% Phosphatase Activity (compared to DMSO) PRL-1” value (recombinant PRL-1) was 95%, the “% Phosphatase Activity (compared to DMSO) PRL-2” value (recombinant PRL-2) was 94% and the “% Phosphatase Activity (compared to DMSO) PRL-3” value (recombinant PRL-3) was 71%.
With O=c1[nH]c(=O)c2ccccc2o1 [Carsalam] the “% Phosphatase Activity (compared to DMSO) PRL-1” value (recombinant PRL-1) was 96%, the “% Phosphatase Activity (compared to DMSO) PRL-2” value (recombinant PRL-2) was 95% and the “% Phosphatase Activity (compared to DMSO) PRL-3” value (recombinant PRL-3) was 80%.
With CC(C)(C)NCC(O)COc1cccc2c1CCC(=O)N2 (stereo not drawn) [Carteolol HCl] the “% Phosphatase Activity (compared to DMSO) PRL-1” value (recombinant PRL-1) was 100%, the “% Phosphatase Activity (compared to DMSO) PRL-2” value (recombinant PRL-2) was 87% and the “% Phosphatase Activity (compared to DMSO) PRL-3” value (recombinant PRL-3) was 71%.
In the case of COc1ccccc1OCCNCC(O)COc1cccc2[nH]c3ccccc3c12 (stereo not drawn) [Carvedilol], the “% Phosphatase Activity (compared to DMSO) PRL-1” value (recombinant PRL-1) is reported as 97%, the “% Phosphatase Activity (compared to DMSO) PRL-2” value (recombinant PRL-2) is reported as 128% and the “% Phosphatase Activity (compared to DMSO) PRL-3” value (recombinant PRL-3) is reported as 111%.
NS(=O)(=O)c1ccc(C(=O)O)cc1 [Carzenide] was tested, and the “% Phosphatase Activity (compared to DMSO) PRL-1” value (recombinant PRL-1) was 105%, the “% Phosphatase Activity (compared to DMSO) PRL-2” value (recombinant PRL-2) was 98% and the “% Phosphatase Activity (compared to DMSO) PRL-3” value (recombinant PRL-3) was 89%.
CC(=O)O.CC(=O)O.CC[C@H](C)C[C@H](C)CCCCCCCCC(=O)N[C@H]1C[C@@H](O)[C@@H](NCCN)NC(=O)[C@@H]2[C@@H](O)CCN2C(=O)[C@H]([C@H](O)CCN)NC(=O)[C@H]([C@H](O)[C@@H](O)c2ccc(O)cc2)NC(=O)[C@@H]2C[C@@H](O)CN2C(=O)[C@H]([C@@H](C)O)NC1=O [Caspofungin Acetate] was tested, and the “% Phosphatase Activity (compared to DMSO) PRL-1” value (recombinant PRL-1) was 106%, the “% Phosphatase Activity (compared to DMSO) PRL-2” value (recombinant PRL-2) was 113% and the “% Phosphatase Activity (compared to DMSO) PRL-3” value (recombinant PRL-3) was 109%.
With COc1cc2c(Oc3ccc4[nH]c(C)cc4c3F)ncnc2cc1OCCCN1CCCC1 [Cediranib (AZD2171)] the “% Phosphatase Activity (compared to DMSO) PRL-1” value (recombinant PRL-1) was 100%, the “% Phosphatase Activity (compared to DMSO) PRL-2” value (recombinant PRL-2) was 105% and the “% Phosphatase Activity (compared to DMSO) PRL-3” value (recombinant PRL-3) was 90%.
For Cc1nnc(SCC2=C(C(=O)O)N3C(=O)[C@@H](NC(=O)Cn4cnnn4)[C@H]3SC2)s1 [Cefazolin Sodium], the “% Phosphatase Activity (compared to DMSO) PRL-1” value (recombinant PRL-1) was 97%, the “% Phosphatase Activity (compared to DMSO) PRL-2” value (recombinant PRL-2) was 110% and the “% Phosphatase Activity (compared to DMSO) PRL-3” value (recombinant PRL-3) was 88%.
In the case of C=CC1=C(C(=O)O)N2C(=O)[C@@H](NC(=O)/C(=N\O)c3csc(N)n3)[C@H]2SC1 [Cefdinir], the “% Phosphatase Activity (compared to DMSO) PRL-1” value (recombinant PRL-1) is reported as 109%, the “% Phosphatase Activity (compared to DMSO) PRL-2” value (recombinant PRL-2) is reported as 110% and the “% Phosphatase Activity (compared to DMSO) PRL-3” value (recombinant PRL-3) is reported as 88%.
For CO/N=C(\C(=O)N[C@@H]1C(=O)N2C(C(=O)OCOC(=O)C(C)(C)C)=C(/C=C\c3scnc3C)CS[C@H]12)c1csc(N)n1 [Cefditoren Pivoxil], the “% Phosphatase Activity (compared to DMSO) PRL-1” value (recombinant PRL-1) was 88%, the “% Phosphatase Activity (compared to DMSO) PRL-2” value (recombinant PRL-2) was 94% and the “% Phosphatase Activity (compared to DMSO) PRL-3” value (recombinant PRL-3) was 113%.
